Experimental data: patent publication US9901584B2, “Methods of cosmetically treating skin conditions with a cosmetic personal cleansing composition” (The Procter & Gamble Company, priority 2015, dated 2018)

Test system: Unhealthy Skin Signature
Conditions: normal human keratinocytes, various doses of zinc pyrithione, 6-24 hours

zinc pyrithione
Linkage to Unhealthy Skin Signature gene expression pattern: negative linkage
